For assay [1], the target named is T1, βA(1-40) amyloid aggregates (Homo sapiens, UniProt P05067).
T1 construct: lyophilized β(1-40) protein powder (which may be purchased from BACHEM); purchased BACHEM
The assay can be described thus: Competition assay with Thioflavin T (ThT) for binding to β(1-40) amyloid aggregates, fluorescence 96-well plate. From the text: Amyloid aggregates containing β(1-40) protein can also be made by methods well known to those skilled in the art. See, for example, Burdick D., Soreghan B., Kwon M., Kosmoski J., Knauer M., Henschen A., Yates J., Cotman C., and Glabe C. Assembly and aggregation properties of synthetic Alzheimer's A4/β amyloid peptide analogs. J. Biol. Chem., 267:546-554 (1992), which is hereby incorporated by reference. Briefly, lyophilized β(1-40) protein powder (which may be purchased from BACHEM) was dissolved at 10 mg/mL in hexafluoro-2-propanol and subsequently diluted to 500 μg/mL in 25 mM sodium phosphate buffer, pH 6 to induce the α-helix to β-sheet transition resulting in aggregate formation.
(§1) The ability of compounds of Formula I to compete with Thioflavin T (ThT) for binding to amyloid aggregates was measured using fluorescence in a 96-well fluorescence plate assay. As a compromise between sensitivity and signal and to facilitate comparisons between different amyloid fibrils, ThT is present at a concentration equal to the Kmapp of the particular amyloid fibril type and fibril concentrations yielding a similar fluorescence intensity are used. Insulin: 0.5 μM ThT, 2 μg per well. β(1-40): 20 μM ThT, 5 μg/well. All solutions are in 25 mM sodium phosphate buffer, pH 6.0, and the assay is performed at room temperature.
Using a multichannel pipettor, 100 μL of dilutions of the compound to be tested (0.001-30 μM final concentration in 3-fold steps) are placed in the bottom of Corning U-well polystyrene plates (Corning Company, Corning, N.Y.). 50 μL of ThT are then added to each well. The amyloid fibrils are then added to each well in a volume of 100 μL rapidly to mix the well contents. The plates are read within 5 to 30 minutes in a Millipore Cytofluor 2350 96-well fluorescence plate reader using an excitation filter of 440 nm (20 nm bandpass) and an emission filter of 485 nm (20 nm bandpass). ThT dye blanks were used to correct for the minimal fluorescence background which are subtracted from all data.
(§2) Results are expressed as % maximal fluorescence (no competing compound). […]

Assay [2] has as its target Insulin amyloid aggregates. The assay can be described thus: Competition assay with Thioflavin T (ThT) for binding to insulin amyloid aggregates, fluorescence 96-well plate. Conditions: 0.5 μM ThT, 2 μg per well fibrils, 25 mM sodium phosphate pH 6.0, room temperature. As to the method: Burke M. J. and Rougevie M. A., Cross-β Protein Structures. I. Insulin Fibrils. […] Briefly, lyophilized insulin protein powder dissolved at 10 mg/mL in 50 mM HCl was alternately heated to 95° C. and frozen in dry ice to form amyloid aggregates.
as §1
Using a multichannel pipettor, 100 μL of dilutions of the compound to be tested (0.001-30 μM final concentration in 3-fold steps) are placed in the bottom of Corning U-well polystyrene plates (Corning Company, Corning, N.Y.). 50 μL of ThT are then added to each well. The amyloid fibrils are then added to each well in a volume of 100 μL rapidly to mix the well contents. […] ThT dye blanks were used to correct for the minimal fluorescence background which are subtracted from all data.
as §2

Setting [3] is: 20 μM ThT, 5 μg/well fibrils, 25 mM sodium phosphate pH 6.0, room temperature, read-out: βA(1-40), IC50.

Read-outs that look alike come from different tables or passages of the source.

As a reminder, the IC50 is the concentration that inhibits the measured activity by half.

T1 sequence (P05067 672-711 limits assumed): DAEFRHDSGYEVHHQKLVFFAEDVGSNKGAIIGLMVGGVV

Consider `CCCCCCC[n+]1c(/C=C/c2ccc(N(C)C)c3ccccc23)sc2ccccc21` [Example 39, (E)-2-[2-(4-Dimethylaminonaphthalen-1-yl)vinyl]-3-heptylbenzothiazol-3-ium iodide], for which the IC50 in assay [1] (setting [3]) came to 160 nM; in assay [2], 40 nM. Turning to `Nc1ccc(/N=N/c2nc3ccccc3s2)c2ccccc12` [Example 48, 4-(Benzothiazol-2-ylazo)naphthalen-1-ylamine], the IC50 in assay [1] (setting [3]) came to 120 nM; in assay [2] it was 110 nM. With `CN(C)c1ccc(/C=C/c2sc3ccc4ccccc4c3[n+]2C)c2ccccc12` [Example 42, (E)-2-[2-(4-Dimethylaminonaphthalen-1-yl)vinyl]-1-methylnaphtho[1,2-d]thiazol-1-ium toluene-4-sulfonate], the half-inhibitory concentration (IC50) was 250 nM in assay [1] (setting [3]) and 42 nM in assay [2]. In the case of `CN(C)c1ccc(/C=C/c2sc3ccccc3[n+]2Cc2ccc3ccccc3c2)cc1` [Example 27, (E)-2-[2-(4-Dimethylaminophenyl)vinyl]-3-naphthalen-2-ylmethylbenzothiazol-3-ium bromide], the IC50 in assay [1] worked out at 120 nM; in assay [2], 13 nM. Take `CCCCCCC[n+]1c(/C=C/c2ccc(N(C)C)cc2)sc2cc(OC)ccc21` [Example 20, (E)-2-[2-(4-Dimethylaminophenyl)vinyl]-3-heptyl-6-methoxybenzothiazol-3-ium iodide]: the IC50 amounted to 140 nM in assay [1] (setting [3]) and 40 nM in assay [2]. Take `CN(C)c1ccc(/C=C/c2sc3ccccc3[n+]2CCCCCOc2ccccc2)cc1` [Example 37, (E)-2-[2-(4-Dimethylaminophenyl)vinyl]-3-(5-phenoxypentyl)benzothiazol-3-ium iodide]: the IC50 in assay [1] (setting [3]) turned out to be 170 nM; in assay [2], 80 nM. Consider `COc1ccc2c(c1)sc(/C=C/c1ccc(N(C)C)cc1)[n+]2C` [Example 19, (E)-2-[2-(4-Dimethylaminophenyl)vinyl]-6-methoxy-3-methylbenzothiazol-3-ium iodide], for which, in assay [1] (setting [3]), the concentration for half-maximal inhibition (IC50) was 300 nM. In the case of `COc1ccc2c(c1)sc(/C=C/c1ccc(N(C)C)c3ccccc13)[n+]2C` [Example 41, (E)-2-[2-(4-Dimethylaminonaphthalen-1-yl)vinyl]-6-methoxy-3-methylbenzothiazol-3-ium iodide], the IC50 in assay [1] (setting [3]) was determined as 430 nM; in assay [2] it was 26 nM.

Consider `CN(C)c1ccc(/C=C/c2sc3ccccc3[n+]2CCCOCc2ccccc2)cc1` [Example 34, (E)-3-(3-Benzyloxypropyl)-2-[2-(4-dimethylaminophenyl)vinyl]benzothiazol-3-ium iodide], for which the IC50 in assay [1] (setting [3]) worked out at 140 nM; in assay [2] it was 52 nM.

As to `CCCCCCC[n+]1c(/C=C/c2ccc(N(CCCC)CCCC)cc2)sc2ccccc21` [Example 45, (E)-2-[2-(4-Dibutylaminophenyl)vinyl]-3-heptylbenzothiazol-3-ium iodide], the figures for the IC50 in assay [1] (setting [3]) and in assay [2] were 600 nM and 90 nM, respectively. As to `CN(C)c1ccc(/C=C/c2nc3cc(Cl)ccc3s2)cc1` [Example 1, (E)-{4-[2-(5-Chlorobenzothiazol-2-yl)vinyl]phenyl}dimethylamine], the results for the IC50 in assay [1] (setting [3]) and in assay [2] were greater than 100000 nM and 100000 nM, respectively.

As for `CN(C)c1ccc(/C=C/c2sc3cc([N+](=O)[O-])ccc3[n+]2C)cc1` [Example 21, (E)-2-[2-(4-Dimethylaminophenyl)vinyl]-3-methyl-6-nitrobenzothiazol-3-ium toluene-4-sulfonate], the IC50 was 1000 nM in assay [1] (setting [3]) and 12 nM in assay [2]. For `CN(C)c1ccc(/C=C/c2sc3ccc(Cl)cc3[n+]2C)cc1` [Example 13, (E)-5-Chloro-2-[2-(4-dimethylaminophenyl)vinyl]-3-methylbenzothiazol-3-ium iodide], in that order: 430 nM and 5.2 nM.

For `COc1ccc2c(c1)sc(N=Nc1ccc(N(C)C)cc1)[n+]2C` [Example 53, 2-[[4-(Dimethylamino)phenyl]azo]-6-methoxy-3-methylbenzothiazol-3-ium methylsulfate], the IC50 in assay [1] (setting [3]) came out at 410 nM; in assay [2], 10 nM. For the compound `CN(C)c1ccc(/C=C/c2sc3cc4ccccc4cc3[n+]2C)cc1` [Example 23, (E)-2-[2-(4-Dimethylaminophenyl)vinyl]-3-methylnaphtho[2,3-d]thiazol-3-ium iodide], the IC50 in assay [1] (setting [3]) and in assay [2] was 120 nM throughout. For `CN(C)c1ccc(/N=N/c2nc3c(ccc4ccccc43)s2)c2ccccc12` [Example 52, Dimethyl[4-(naphtho[1,2-d]thiazol-2-ylazo)naphthalen-1-yl]amine], the IC50 in assay [2] stood at 16000 nM. As for `CCn1c(/C=C/c2ccc(N(C)C)cc2)[s+]c2ccc3ccccc3c21` [Example 22, (E)-2-[2-(4-Dimethylaminophenyl)vinyl]-1-ethylnaphtho[1,2-d]thiazol-3-ium toluene-4-sulfonate], the IC50 in assay [1] (setting [3]) is 210 nM; in assay [2] it was 41 nM. Take `CCCCCCC[n+]1c(/C=C/c2ccc(N3CCCC3)cc2)sc2ccccc21` [Example 46, (E)-3-Heptyl-2-[2-[(4-pyrrolidin-1-yl)phenyl]vinyl]benzothiazol-3-ium iodide]: the IC50 in assay [1] (setting [3]) is 160 nM; in assay [2] it was 42 nM.

Turning to `CN(C)c1ccc(/C=C/c2sc3ccccc3[n+]2C)cc1` [Example 9, (E)-2-[2-(4-Dimethylaminophenyl)vinyl]-3-methylbenzothiazol-3-ium iodide], the IC50 in assay [1] (setting [3]) worked out at 1000 nM. In assay [2], `CN(C)c1ccc(/C=C/c2sc3ccccc3[n+]2Cc2ccccc2-c2ccccc2)cc1` [Example 28, (E)-3-Biphenyl-2-ylmethyl-2-[2-(4-dimethylaminophenyl)vinyl]benzothiazol-3-ium bromide] gave an IC50 of 80 nM.

With `CN(C)c1ccc(/N=N/c2nc3ccccc3s2)cc1` [Example 47, [4-(Dimethylamino)phenylazo]benzothiazole], the IC50 in assay [1] (setting [3]) is 22000 nM. Same read-out and setting: next, `CN(C)c1ccc(/C=C/c2sc3ccc(F)cc3[n+]2C)cc1` [Example 14, (E)-2-[2-(4-Dimethylaminophenyl)vinyl]-5-fluoro-3-methylbenzothiazol-3-ium iodide]: 1000 nM; `CCCCCCC[n+]1c(/C=C/c2ccc(N(C)C)cc2)sc2ccccc21` [Example 12, (E)-2-[2-(4-Dimethylaminophenyl)vinyl]-3-heptylbenzothiazol-3-ium iodide]: 93 nM. On the same count and under the same terms, as for `CN(C)c1ccc(/C=C/c2sc3ccccc3[n+]2CCCCCc2ccccc2)cc1` [Example 36, (E)-2-[2-(4-Dimethylaminophenyl)vinyl]-3-(5-phenylpentyl)benzothiazol-3-ium iodide], the figure is 170 nM.

Take `CN(C)c1ccc(/C=C/c2sc3ccccc3[n+]2CCCCOc2ccccc2)cc1` [Example 35, (E)-2-[2-(4-Dimethylaminophenyl)vinyl]-3-(4-phenoxybutyl)benzothiazol-3-ium iodide]: the IC50 in assay [1] (setting [3]) was 170 nM.

On to `CN(C)c1ccc(/C=C/c2nc3ccccc3s2)cc1` [Example 2, (E)-{4-[2-(Benzothiazol-2-yl)vinyl]phenyl}dimethylamine], for which the IC50 in assay [1] (setting [3]) was greater than 100000 nM. In the case of `CN(C)c1ccc(/C=C/c2sc3ccccc3[n+]2C/C=C/c2ccccc2)cc1` [Example 32, (E,E)-2-[2-(4-Dimethylaminophenyl)vinyl]-3-(3-phenylallyl)benzothiazol-3-ium bromide], the IC50 in assay [2] is 80 nM.

`CN(C)c1ccc(/C=C/c2nc3ccc(N(C)C)cc3s2)cc1` [Example 5, (E)-{2-[2-(4-Dimethylaminophenyl)vinyl]benzothiazol-6-yl}dimethylamine]: in assay [1] (setting [3]), the IC50 was greater than 100000 nM. Compound `Cc1ccc2nc(/C=C/c3ccc(N(C)C)cc3)sc2c1` [Example 4, (E)-Dimethyl-{4-[2-(6-methylbenzothiazol-2-yl)vinyl]phenyl}amine] yielded an IC50 in assay [2] of 1500 nM. Regarding `Cc1ccc2sc(/C=C/c3ccc(N(C)C)cc3)nc2c1` [Example 3, (E)-Dimethyl-{4-[2-(5-methylbenzothiazol-2-yl)vinyl]phenyl}amine], the IC50 in assay [2] was found to be 900 nM.

The record behind these values is patent US6001331A, “Method of imaging amyloid deposits” (Warner-Lambert Company, priority 1998, dated 1999).
